Test results from patent US20230102554A1 (GB002, INC., priority 2019, published 2023).

Experiments:
[1] = biological target: T1, Human PDGFRα, cytoplasmic domain (GST-PDGFRα) (Homo sapiens, UniProt P16234); test: Human PDGFRα biochemical inhibition assay (off-chip Mobility Shift Assay)
T1 construct: made in house

[2] = biological target: T2, Human PDGFRβ, cytoplasmic domain (GST-PDGFRβ) (Homo sapiens, UniProt P09619); test: Human PDGFRβ biochemical inhibition assay (off-chip Mobility Shift Assay)
T2 construct: made in house
T2 sequence (P09619 with tags, fused parts or gaps): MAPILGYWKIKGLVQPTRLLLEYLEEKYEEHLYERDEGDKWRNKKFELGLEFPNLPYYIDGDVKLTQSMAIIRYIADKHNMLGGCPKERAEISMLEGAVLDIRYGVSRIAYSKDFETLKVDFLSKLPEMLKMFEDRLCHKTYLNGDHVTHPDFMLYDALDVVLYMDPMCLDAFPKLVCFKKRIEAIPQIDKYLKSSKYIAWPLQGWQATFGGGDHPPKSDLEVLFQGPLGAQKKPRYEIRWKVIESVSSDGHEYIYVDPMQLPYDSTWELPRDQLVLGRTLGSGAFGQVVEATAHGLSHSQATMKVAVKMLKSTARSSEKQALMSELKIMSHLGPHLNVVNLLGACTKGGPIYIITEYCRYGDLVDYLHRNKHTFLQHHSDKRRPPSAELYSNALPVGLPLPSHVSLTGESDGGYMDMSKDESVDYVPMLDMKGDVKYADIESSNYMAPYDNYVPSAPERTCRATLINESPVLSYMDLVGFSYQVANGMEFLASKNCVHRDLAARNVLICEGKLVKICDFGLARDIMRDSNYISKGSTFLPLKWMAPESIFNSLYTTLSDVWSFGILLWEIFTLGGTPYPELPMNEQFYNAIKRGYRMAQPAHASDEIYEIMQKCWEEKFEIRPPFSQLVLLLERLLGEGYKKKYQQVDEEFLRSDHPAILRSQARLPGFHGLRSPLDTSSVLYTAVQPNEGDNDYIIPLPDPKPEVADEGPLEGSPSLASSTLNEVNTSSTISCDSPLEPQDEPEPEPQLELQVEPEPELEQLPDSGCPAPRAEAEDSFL
Method in brief: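 GST-tagged cytoplasmic domain (aa 557-1106) from baculovirus was incubated 1 h at room temperature with compound, CSKtide, ATP at Km and Mg²⁺ in HEPES buffer, pH 7.5. Phosphorylated and unphosphorylated peptide were separated by off-chip mobility shift, and the product ratio P/(P+S) gave percent inhibition.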

T1 sequence (P16234 550-1089 T674I): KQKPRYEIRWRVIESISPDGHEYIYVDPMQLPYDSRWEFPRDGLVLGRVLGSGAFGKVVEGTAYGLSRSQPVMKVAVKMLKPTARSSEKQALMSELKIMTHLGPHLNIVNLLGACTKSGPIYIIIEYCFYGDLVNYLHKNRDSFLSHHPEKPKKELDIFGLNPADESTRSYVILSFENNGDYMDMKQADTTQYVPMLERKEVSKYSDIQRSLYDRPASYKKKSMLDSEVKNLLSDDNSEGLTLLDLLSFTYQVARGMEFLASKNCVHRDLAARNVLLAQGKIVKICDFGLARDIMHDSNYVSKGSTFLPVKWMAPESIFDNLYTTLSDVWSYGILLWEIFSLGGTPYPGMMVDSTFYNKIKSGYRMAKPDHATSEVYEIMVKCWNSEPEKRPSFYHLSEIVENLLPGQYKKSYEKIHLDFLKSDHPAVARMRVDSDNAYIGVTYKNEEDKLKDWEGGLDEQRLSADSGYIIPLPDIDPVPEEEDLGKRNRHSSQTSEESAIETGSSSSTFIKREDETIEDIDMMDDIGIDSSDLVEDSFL

SMILES | IC50 [1] | IC50 [2]
CC(C)c1ccc(C(=O)Nc2cccc([C@H](C)Nc3cnc4cnn(C)c4n3)c2)cn1 [Compound 204, (S)-6-isopropyl-N-(3-(1-((1-methyl-1H-pyrazolo[3,4-b]pyrazin-6-yl)amino)ethyl)phenyl)nicotinamide] | < 300 nM | < 300 nM
COc1ncc(C(=O)Nc2cccc([C@H](C)Nc3cnc4[nH]cc(-c5cnn(C)c5)c4n3)c2)cc1C [Compound 579, (S)-6-methoxy-5-methyl-N-(3-(1-((7-(1-methyl-1H-pyrazol-4-yl)-5H-pyrrolo[2,3-b]pyrazin-2-yl)amino)ethyl)phenyl) nicotinamide] | < 300 nM | < 300 nM
CCn1cnc2ncc(C(=O)Nc3cccc([C@H](C)Nc4cnc5cnn(C)c5n4)c3)cc21 [Compound 265, (S)-1-ethyl-N-(3-(1-((1-methyl-1H-pyrazolo[3,4-b]pyrazin-6-yl)amino)ethyl)phenyl)-1H-imidazo[4,5-b]pyridine-6-carboxamide] | < 300 nM | < 300 nM
CCn1cc2ncc(N[C@@H](C)c3cccc(NC(=O)c4ccc(CN5CCCC(F)(F)C5)c(C)c4)c3)nc2n1 [Compound 474, (S)-4-((3,3-difluoropiperidin-1-yl)methyl)-N-(3-(1-((2-ethyl-2H-pyrazolo[3,4-b]pyrazin-6-yl)amino)ethyl)phenyl)-3-methylbenzamide] | < 300 nM | < 300 nM
CCn1cc2ncc(N[C@@H](C)c3cccc(NC(=O)Cc4ccc(C)cn4)c3)nc2n1 [Compound 25, (S)—N-(3-(1-((2-ethyl-2H-pyrazolo[3,4-b]pyrazin-6-yl)amino)ethyl)phenyl)-2-(5-methylpyridin-2-yl)acetamide] | < 300 nM | ≥ 1000 nM
CCn1cc2ncc(N[C@@H](C)c3cccc(NC(=O)c4cc(F)c(CN5CCCC5)c(Cl)c4)c3)nc2n1 [Compound 488, (S)-3-chloro-N-(3-(1-((2-ethyl-2H-pyrazolo[3,4-b]pyrazin-6-yl)amino)ethyl)phenyl)-5-fluoro-4-(pyrrolidin-1-ylmethyl) benzamide] | < 300 nM | < 300 nM
C[C@H](Nc1cnc2cnn(C)c2n1)c1cccc(NC(=O)c2cnc(C3CC3)s2)c1 [Compound 140, (S)-2-cyclopropyl-N-(3-(1-((1-methyl-1H-pyrazolo[3,4-b]pyrazin-6-yl)amino)ethyl)phenyl)thiazole-5-carboxamide] | < 300 nM | < 300 nM
C[C@H](Nc1cnc2cnn(C)c2n1)c1cccc(NC(=O)c2cnc3c(ccn3C)c2)c1 [Compound 169, (S)-1-methyl-N-(3-(1-((1-methyl-1H-pyrazolo[3,4-b]pyrazin-6-yl)amino)ethyl)phenyl)-1H-pyrrolo[2,3-b] pyridine-5-carboxamide] | < 300 nM | < 300 nM
C[C@H](Nc1cnc2cnn(C)c2n1)c1cccc(NC(=O)N2CCCC(C(F)(F)F)C2)c1 (stereo partly drawn) [Compound 54, N-(3-((S)-1-((1-methyl-1H-pyrazolo[3,4-b]pyrazin-6-yl)amino)ethyl)phenyl)-3-(trifluoromethyl)piperidine-1-carboxamide] | < 300 nM | < 300 nM
CCn1cc2ncc(N[C@@H](C)c3cccc(NC(=O)c4ccc(C5CC5)s4)c3)nc2n1 [Compound 291, (S)-5-cyclopropyl-N-(3-(1-((2-ethyl-2H-pyrazolo[3,4-b]pyrazin-6-yl)amino)ethyl)phenyl)thiophene-2-carboxamide] | < 300 nM | < 300 nM
CCn1cc2ncc(N[C@@H](C)c3cccc(NC(=O)c4ccc(CN5CCN(C)CC5)c(C)c4)c3)nc2n1 [Compound 402, (S)-N-(3-(1-((2-ethyl-2H-pyrazolo[3,4-b]pyrazin-6-yl)amino)ethyl)phenyl)-3-methyl-4-((4-methylpiperazin-1-yl)methyl)benzamide] | < 300 nM | < 300 nM
CCn1cc2ncc(N[C@@H](C)c3cccc(NC(=O)c4ccc(C#N)c(C)c4)c3)nc2n1 [Compound 331, (S)-4-cyano-N-(3-(1-((2-ethyl-2H-pyrazolo[3,4-b]pyrazin-6-yl)amino)ethyl)phenyl)-3-methylbenzamide] | < 300 nM | < 300 nM
COc1cncc(C(=O)Nc2cccc([C@H](C)Nc3cnc4[nH]nc(C)c4n3)c2)c1 [Compound 531, (S)-5-methoxy-N-(3-(1-((3-methyl-1H-pyrazolo[3,4-b]pyrazin-5-yl)amino)ethyl)phenyl)nicotinamide] | < 300 nM | < 300 nM
Cc1cncc(C(=O)Nc2cccc([C@H](C)Nc3cnc4cn(-c5cccnc5)nc4n3)c2)c1 [Compound 463, (S)-5-methyl-N-(3-(1-((2-(pyridin-3-yl)-2H-pyrazolo[3,4-b]pyrazin-6-yl)amino)ethyl)phenyl)nicotinamide] | < 300 nM | < 300 nM

Second part, the compound after the results:

IC50 [1] | IC50 [2] | SMILES
< 300 nM | < 300 nM | Cc1n[nH]c2ncc(N[C@@H](C)c3cccc(NC(=O)c4cc(C(C)C)on4)c3)nc12 [Compound 542, (S)-5-isopropyl-N-(3-(1-((3-methyl-1H-pyrazolo[3,4-b]pyrazin-5-yl)amino)ethyl)phenyl)isoxazole-3-carboxamide]
< 300 nM | < 300 nM | Cc1n[nH]c2ncc(N[C@@H](C)c3cccc(NC(=O)c4cnn(C(F)F)c4)c3)nc12 [Compound 546, (S)-1-(difluoromethyl)-N-(3-(1-((3-methyl-1H-pyrazolo[3,4-b]pyrazin-5-yl)amino)ethyl)phenyl)-1H-pyrazole-4-carboxamide]
< 300 nM | < 300 nM | CCn1cc2ncc(N[C@@H](C)c3cc(NC(=O)c4cnc(F)c(C)c4)ccc3C)nc2n1 [Compound 512, (S)-N-(3-(1-((2-ethyl-2H-pyrazolo[3,4-b]pyrazin-6-yl)amino)ethyl)-4-methylphenyl)-6-fluoro-5-methylnicotinamide]
< 300 nM | ≥ 1000 nM | CCn1cc2ncc(N[C@@H](C)c3cccc(NC(=O)Cc4cc(C)ccn4)c3)nc2n1 [Compound 678, (S)-N-(3-(1-((2-ethyl-2H-pyrazolo[3,4-b]pyrazin-6-yl)amino)ethyl)phenyl)-2-(4-methylpyridin-2-yl)acetamide]
300 to 1000 nM | 300 to 1000 nM | CCn1cc2ncc(N[C@@H](C)c3cccc(NC(=O)c4ccc(N(C)C)nc4)c3)nc2n1 [Compound 377, (S)-6-(dimethylamino)-N-(3-(1-((2-ethyl-2H-pyrazolo[3,4-b]pyrazin-6-yl)amino)ethyl)phenyl)nicotinamide]
< 300 nM | < 300 nM | CCn1cc2ncc(N[C@@H](C)c3cc(NC(=O)c4ccc(N5CCCC5)nc4)ccc3F)nc2n1 [Compound 320, (S)-N-(3-(1-((2-ethyl-2H-pyrazolo[3,4-b]pyrazin-6-yl)amino)ethyl)-4-fluorophenyl)-6-(pyrrolidin-1-yl)nicotinamide]
< 300 nM | < 300 nM | COc1ccc(C(=O)Nc2cccc([C@H](C)Nc3cnc4[nH]cc(-c5cnn(C)c5)c4n3)c2)cn1 [Compound 566, (S)-6-methoxy-N-(3-(1-((7-(1-methyl-1H-pyrazol-4-yl)-5H-pyrrolo[2,3-b]pyrazin-2-yl)amino)ethyl)phenyl) nicotinamide]
< 300 nM | < 300 nM | C[C@H](Nc1cnc2cnn(C)c2n1)c1cccc(NC(=O)c2cc(C3CC3)on2)c1 [Compound 144, (S)-5-cyclopropyl-N-(3-(1-((1-methyl-1H-pyrazolo[3,4-b]pyrazin-6-yl)amino)ethyl)phenyl)isoxazole-3-carboxamide]
< 300 nM | < 300 nM | Cc1cncc(C(=O)Nc2cccc([C@H](C)Nc3cnc4cnn(C5CC5)c4n3)c2)c1 [Compound 177, (S)-N-(3-(1-((1-cyclopropyl-1H-pyrazolo[3,4-b]pyrazin-6-yl)amino)ethyl)phenyl)-5-methylnicotinamide]
< 300 nM | < 300 nM | Cc1n[nH]c2ncc(N[C@@H](C)c3cccc(NC(=O)c4cnn(C5CC5)c4)c3)nc12 [Compound 543, (S)-1-cyclopropyl-N-(3-(1-((3-methyl-1H-pyrazolo[3,4-b]pyrazin-5-yl)amino)ethyl)phenyl)-1H-pyrazole-4-carboxamide]
< 300 nM | < 300 nM | CCn1cc2ncc(N[C@@H](C)c3cc(NC(=O)Cc4ccc(C)c(C)n4)ccc3C)nc2n1 [Compound 717, (S)-2-(5,6-dimethylpyridin-2-yl)-N-(3-(1-((2-ethyl-2H-pyrazolo[3,4-b]pyrazin-6-yl)amino)ethyl)-4-methylphenyl) acetamide]
< 300 nM | < 300 nM | Cc1cncc(C(=O)Nc2cccc([C@H](C)Nc3cnc4[nH]nc(-c5cnn(C)c5)c4n3)c2)c1 [Compound 551, (S)-5-methyl-N-(3-(1-((3-(1-methyl-1H-pyrazol-4-yl)-1H-pyrazolo[3,4-b]pyrazin-5-yl)amino)ethyl)phenyl) nicotinamide]
< 300 nM | < 300 nM | CCn1cc2ncc(N[C@@H](C)c3cccc(NC(=O)c4cnc(Br)c(C)c4)c3)nc2n1 [Compound 350, (S)-6-bromo-N-(3-(1-((2-ethyl-2H-pyrazolo[3,4-b]pyrazin-6-yl)amino)ethyl)phenyl)-5-methylnicotinamide]
300 to 1000 nM | ≥ 1000 nM | Cc1cncc(C(=O)Nc2cccc([C@H](C)Nc3cnc4cnn(C5COC5)c4n3)c2)c1 [Compound 179, (S)-5-methyl-N-(3-(1-((1-(oxetan-3-yl)-1H-pyrazolo[3,4-b]pyrazin-6-yl)amino)ethyl)phenyl)nicotinamide]
< 300 nM | ≥ 1000 nM | C[C@H](Nc1cnc2cnn(C)c2n1)c1cccc(NC(=O)c2ccn(C(F)F)n2)c1 [Compound 155, (S)-1-(difluoromethyl)-N-(3-(1-((1-methyl-1H-pyrazolo[3,4-b]pyrazin-6-yl)amino)ethyl)phenyl)-1H-pyrazole-3-carboxamide]
< 300 nM | 300 to 1000 nM | CCn1cc2ncc(N[C@@H](C)c3cccc(NC(=O)c4cncc(C)c4)c3)nc2n1 [Compound 9, (S)—N-(3-(1-((2-ethyl-2H-pyrazolo[3,4-b]pyrazin-6-yl)amino)ethyl)phenyl)-5-methylnicotinamide]
